Measured values taken from US20240246918A1, “COMPOUNDS AND COMPOSITIONS AS EIF4E INHIBITORS AND THE USES THEREOF” (Ribometrix, Inc., priority 2022, published 2024).

Tests used:
human eIF4E protein = target: T1, human eIF4E protein (Homo sapiens, UniProt P06730); test: Biochemical competitive binding assay (TR-FRET competition, EDA-m7GDP-ATTO-647N probe); details: read-out: hEIF4E TR-FRET IC50
T1 construct: purchased Novus NBP-45314
Method in brief: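 IC50 values come from 4-parameter fits of the normalized 665/620 nm TR-FRET ratio. Compound was first incubated 15 min with 4 nM recombinant His-eIF4E bound to 2.5 nM Eu-anti-His antibody, then 15 min with 5 nM m7GDP-ATTO-647N tracer, in pH 7.5 HEPES buffer with 100 mM KCl, Tween-20 and BSA.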

[1] = tested on: COLO 205 colorectal tumor cells; test: Tumor cell viability inhibition assay (CellTiter-Glo 2.0, 72 hours); assay type: cell-based; details: COLO 205 cell viability
Method in brief: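 IC50 derived by 4-parameter fitting after normalizing luminescence to DMSO and max-inhibition wells. Compounds tested as 11 concentrations in 4-fold steps on COLO 205 cells seeded at 1500 per well in RPMI-1640/10% FBS; ATP content measured with CellTiter-Glo 2.0 after 72 h.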

T1 sequence (P06730 whole entry): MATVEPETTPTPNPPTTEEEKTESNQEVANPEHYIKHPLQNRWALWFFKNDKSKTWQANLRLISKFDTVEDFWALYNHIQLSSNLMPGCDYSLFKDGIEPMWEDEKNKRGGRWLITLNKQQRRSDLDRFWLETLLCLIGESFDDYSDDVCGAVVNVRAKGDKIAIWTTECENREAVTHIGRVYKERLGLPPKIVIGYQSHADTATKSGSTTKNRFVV

IC50 (human eIF4E protein) [µM]	IC50 ([1]; Homo sapiens, COLO 205, 72 h) [µM]	IC50 [1] [µM]	SMILES
< 0.1	< 5	–	Cc1cc(-c2cc(Cl)ccc2OCCn2c(C)nc3c(c2=O)CC(N2CCC(OC(F)(F)F)CC2)CC32CC2)c2scc(C(=O)O)c2n1 (single isomer, unassigned) [Compound 379, 7-(5-chloro-2-(2-(2′-methyl-4′-oxo-6′-(4-(trifluoromethoxy)piperidin-1-yl)-6′,7′-dihydro-4′H-spiro[cyclopropane-1,8′-quinazolin]-3′(5′H)-yl)ethoxy)phenyl)-5-methylthieno[3,2-b]pyridine-3-carboxylic acid]
< 0.1	< 5	–	Cc1cc(-c2cc(Cl)ccc2OCCn2c(C)nc3c(c2=O)C[C@@H](N2CCC(c4cc(F)ccc4C(F)(F)F)CC2)CC3)c2scc(C(=O)O)c2n1 (single isomer, unassigned) [Compound 586]
< 0.1	< 5	–	Cc1cc(-c2cc(Cl)ccc2OCCn2c(C)nc3c(c2=O)C[C@H](N2CCCC(F)(F)CC2)CC3)c2scc(C(=O)O)c2n1 (single isomer, unassigned) [Compound 401]
< 0.1	< 5	–	Cc1cc(-c2cc(Cl)ccc2OCCn2c(C)nc3c(c2=O)C[C@H](N2C[C@@H]4CC[C@H]2CC4OC(F)(F)F)CC3)c2scc(C(=O)O)c2n1 (single isomer, unassigned) [Compound 501]
< 0.1	< 5	–	CO[C@H](C1CCN([C@H]2CCc3nc(C)n(CCOc4ccc(Cl)cc4-c4cc(C)nc5c(C(=O)O)csc45)c(=O)c3C2)CC1)C(F)(F)F (single isomer, unassigned) [Compound 563]
< 0.1	< 5	–	Cc1cc(-c2cc(Cl)ccc2OCCn2c(C)nc3c(c2=O)CC(N2CCC4(CC2)CN(CC(F)(F)F)CCO4)CC3)c2scc(C(=O)O)c2n1 (single isomer, unassigned) [Compound 517]
< 0.1	< 5	–	Cc1cc(-c2cc(Cl)ccc2OCCn2c(C)nc3c(c2=O)CC(N2CCC(C(F)F)CC2)CC3)c2scc(C(=O)O)c2n1 (stereo not drawn) [Compound 124]
< 0.1	–	< 5	[2H]C1(N2CCC(OC(F)(F)F)CC2)CCc2nc(C)n(CCOc3ccc(Cl)cc3-c3cc(C)nc4c(C(=O)O)csc34)c(=O)c2C1 (single isomer, unassigned) [Compound 370]
< 0.1	< 5	–	CO[C@@H]1CCN([C@H]2CCc3nc(C)n(CCOc4ccc(Cl)cc4-c4cc(C)nc5c(C(=O)O)csc45)c(=O)c3C2)C[C@@H]1F (single isomer, unassigned) [Compound 367]
< 0.1	< 5	–	Cc1cc(-c2cc(Cl)ccc2OCCn2c(C)nc3c(c2=O)C[C@H](N2CCC(n4cc(Cl)cn4)CC2)CC3)c2scc(C(=O)O)c2n1 (single isomer, unassigned) [Compound 108]
< 0.1	< 5	–	Cc1cc(-c2cc(Cl)ccc2OCCn2c(C)nc3c(c2=O)C[C@H](N2CC4CCC(C2)C4OC(F)(F)F)CC3)c2scc(C(=O)O)c2n1 (single isomer, unassigned) [Compound 494]
< 0.1	< 5	–	Cc1cc(-c2cc(Cl)ccc2OCCn2c(C)nc3c(c2=O)C[C@@H](N2CC[C@H](C(F)F)C2)CC3)c2scc(C(=O)O)c2n1 (single isomer, unassigned) [Compound 113]
< 0.1	< 5	–	Cc1cc(-c2cc(Cl)ccc2OCCn2c(C)nc3c(c2=O)C[C@H](N2CCCC[C@@H]2C)CC3)c2scc(C(=O)O)c2n1 (single isomer, unassigned) [Compound 436]
< 0.1	> 20	–	Cc1cc(-c2cc(Cl)ccc2OCCn2c(C)nc3c(c2=O)C[C@H](N2CCC(c4cn(C)cn4)CC2)CC3)c2scc(C(=O)O)c2n1 (single isomer, unassigned) [Compound 486]
< 0.1	< 5	–	Cc1cc(-c2cc(Cl)ccc2OCCn2c(C)nc3c(c2=O)C[C@H](N2CCC(CC(F)(F)F)CC2)CC3)c2scc(C(=O)O)c2n1 (single isomer, unassigned) [Compound 107]
< 0.1	–	< 5	Cc1cc(-c2cc(Cl)ccc2OCCn2c(C)nc3c(c2=O)CC(CN(C)C)(N2CCC(OC(F)(F)F)CC2)CC3)c2scc(C(=O)O)c2n1 (single isomer, unassigned) [Compound 620]
< 0.1	< 5	–	Cc1cc(-c2cc(Cl)ccc2OCCn2c(C)nc3c(c2=O)C[C@@H](N2CCO[C@H](CC(F)(F)F)C2)CC3)c2scc(C(=O)O)c2n1 (single isomer, unassigned) [Compound 526]
< 0.1	< 5	–	Cc1cc(-c2cc(Cl)ccc2OCCn2c(C)nc3c(c2=O)C[C@@H](N2CCC4(CCCO4)CC2)CC3)c2scc(C(=O)O)c2n1 (single isomer, unassigned) [Compound 421]
< 0.1	< 5	–	Cc1cc(-c2cc(Cl)ccc2OCCn2c(C)nc3c(c2=O)C[C@@H](N2CCC(c4ncn(C)n4)CC2)CC3)c2scc(C(=O)O)c2n1 (single isomer, unassigned) [Compound 463]

Continued, compound first:

SMILES	IC50 (human eIF4E protein) [µM]	IC50 ([1]; Homo sapiens, COLO 205, 72 h) [µM]	IC50 [1] [µM]
Cc1cc(-c2cc(Cl)ccc2OCCn2c(C)nc3c(c2=O)C[C@H](N2CCC[C@@H](C(F)F)C2)CC32CC2)c2scc(C(=O)O)c2n1 (single isomer, unassigned) [Compound 616]	< 0.1	< 5	–
Cc1cc(-c2cc(Cl)ccc2OCCn2c(C)nc3c(c2=O)C[C@H](N2C[C@@H]4CC(F)(F)C[C@@H]4C2)CC3)c2scc(C(=O)NS(C)(=O)=O)c2n1 (single isomer, unassigned) [Compound 368]	< 0.1	< 5	–
Cc1cc(-c2cc(Cl)ccc2OCCn2c(C)nc3c(c2=O)C[C@@H](N2CCC[C@@H](c4ncccc4F)C2)CC3)c2scc(C(=O)O)c2n1 (single isomer, unassigned) [Compound 466]	< 0.1	< 5	–
Cc1cc(-c2cc(Cl)ccc2OCCn2c(C)nc3c(c2=O)C(C)(C)C(N)CC3)c2scc(C(=O)O)c2n1 (stereo not drawn) [Compound 123, 7-(2-(2-(6-amino-2,5,5-trimethyl-4-oxo-5,6,7,8-tetrahydroquinazolin-3(4H)-yl)ethoxy)-5-chlorophenyl)-5-methylthieno[3,2-b]pyridine-3-carboxylic acid]	0.5 to 5	> 20	–
Cc1csc([C@@H]2CCCN([C@H]3CCc4nc(C)n(CCOc5ccc(Cl)cc5-c5cc(C)nc6c(C(=O)O)csc56)c(=O)c4C3)C2)n1 (single isomer, unassigned) [Compound 481]	< 0.1	< 5	–
Cc1cc(-c2cc(Cl)ccc2OCCn2c(C)nc3c(c2=O)C[C@@H](N2CCC[C@H](c4ccn(C)n4)C2)CC3)c2scc(C(=O)O)c2n1 (single isomer, unassigned) [Compound 448]	< 0.1	< 5	–
Cc1cc(-c2cc(Cl)ccc2OCCn2c(C)nc3c(c2=O)C[C@H](N2CCC4(CC2)NC(=O)NC4=O)CC3)c2scc(C(=O)O)c2n1 (single isomer, unassigned) [Compound 430]	< 0.1	< 5	–
Cc1cc(-c2cc(Cl)ccc2OCCn2c(C)nc3c(c2=O)CC(C)(N(C)CC2CC(F)(F)C2)CC3)c2scc(C(=O)O)c2n1 (single isomer, unassigned) [Compound 600]	< 0.1	–	< 5
Cc1cc(-c2cc(Cl)ccc2OCCn2c(C)nc3c(c2=O)C[C@@H](N2C[C@@H]4CC(F)(F)C[C@@H]4C2)CC32CC2)c2scc(C(=O)O)c2n1 (single isomer, unassigned) [Compound 619]	< 0.1	< 5	–
Cc1cc(-c2cc(Cl)ccc2OCCn2c(C)nc3c(c2=O)C[C@H](N2[C@@H]4CC[C@H]2C[C@@H](OC(F)(F)F)C4)CC3)c2scc(C(=O)O)c2n1 (single isomer, unassigned) [Compound 398]	0.1 to 0.5	> 20	–
Cc1cc(-c2cc(Cl)ccc2OCCn2c(C)nc3c(c2=O)C[C@@H](N2CCC[C@@]4(C2)CC4(F)F)CC3(C)C)c2scc(C(=O)O)c2n1 (single isomer, unassigned) [Compound 441]	< 0.1	5 to 20	–
COC1CCN(C2CCc3nc(C)n(CC#Cc4ccc(Cl)cc4-c4ccnc5c(C(=O)NS(C)(=O)=O)csc45)c(=O)c3C2)CC1 (single isomer, unassigned) [Compound 414]	< 0.1	< 5	–
Cc1cc(-c2cc(Cl)c(=O)[nH]c2OCCn2c(C)nc3c(c2=O)CC(N(C)C2CC2)CC3)c2scc(C(=O)O)c2n1 (single isomer, unassigned) [Compound 233]	0.5 to 5	> 20	–
Cc1cc(-c2cc(Cl)ccc2OCCn2c(C)nc3c(c2=O)C[C@@H](N2CCC[C@H](c4ncccc4F)C2)CC3)c2scc(C(=O)O)c2n1 (single isomer, unassigned) [Compound 467]	< 0.1	< 5	–
Cc1cc(-c2cc(Cl)ccc2OCCn2c(C)nc3c(c2=O)C[C@@H](N2C[C@@H]4CC(F)(F)C[C@@H]4C2)CC3)c2scc(C(=O)NS(C)(=O)=O)c2n1 (relative stereo) [Compound 369]	< 0.1	< 5	–
CO[C@@H]1CCN([C@]2(C)CCc3nc(C)n(CCOc4ccc(Cl)cc4-c4cc(C)nc5c(C(=O)O)csc45)c(=O)c3C2)CC1(C)C (single isomer, unassigned) [Compound 558]	0.1 to 0.5	5 to 20	–
Cc1cc(-c2cc(Cl)ccc2OCCn2c(C)nc3c(c2=O)C[C@H](N2CCC[C@@H](c4ncccc4F)C2)CC3)c2scc(C(=O)O)c2n1 (single isomer, unassigned) [Compound 465]	< 0.1	< 5	–
